Test results reported in US6737383B1, “Herbicidal oxadiazolidines” (priority 1999, dated 2004).

Legend:
[1] = system: surinam grass; experiment: Test B pre/postemergence surinam grass; format: in vivo, Brachiaria decumbens
Summary of the method: (§1)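 Herbicidal effect was estimated by eye on a ten-point control scale after plants spent twelve to sixteen days in a greenhouse following soil or foliar treatment. Foliar sprays targeted plants at one to four leaves; all doses were formulated in a non-phytotoxic solvent with surfactant.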

[2] = system: sugar beet; experiment: Test B pre/postemergence sugar beet; format: in vivo, Beta vulgaris
Summary of the method: as §1

[3] = system: velvetleaf; experiment: Test B pre/postemergence velvetleaf; format: in vivo, Abutilon theophrasti
Summary of the method: as §1

[4] = system: purple nutsedge; experiment: Test B pre/postemergence purple nutsedge; format: in vivo, Cyperus rotundus
Summary of the method: as §1

[5] = system: corn; experiment: Test B pre/postemergence corn; format: in vivo, Zea mays
Summary of the method: as §1

[6] = system: pigweed; experiment: Test B pre/postemergence pigweed; format: in vivo, Amaranthus retroflexus
Summary of the method: as §1

[7] = system: wheat; experiment: Test B pre/postemergence wheat; format: in vivo, Triticum aestivum
Summary of the method: as §1

[8] = system: giant foxtail; experiment: Test B pre/postemergence giant foxtail; format: in vivo, Setaria faberii
Summary of the method: as §1

[9] = system: morningglory; experiment: Test B pre/postemergence morningglory; format: in vivo, Ipomoea hederacea
Summary of the method: as §1

[10] = system: duck salad; experiment: Test B flood test duck salad; format: in vivo, Heteranthera limosa
Summary of the method: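 Each value is a visual injury score relative to controls, with 10 meaning complete control and 0 no effect. Evaluation took place twelve to sixteen days after the 2-leaf-stage plants were treated and kept in the greenhouse.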

[11] = system: soybean; experiment: Test B pre/postemergence soybean; format: in vivo, Glycine max
Summary of the method: as §1

[12] = system: cocklebur; experiment: Test B pre/postemergence cocklebur; format: in vivo, Xanthium strumarium
Summary of the method: as §1

[13] = system: rape; experiment: Test B pre/postemergence rape; format: in vivo, Brassica napus
Summary of the method: as §1

[14] = system: bedstraw; experiment: Test B pre/postemergence bedstraw; format: in vivo, Galium aparine
Summary of the method: as §1

[15] = system: crabgrass; experiment: Test B pre/postemergence crabgrass; format: in vivo, Digitaria sanguinalis
Summary of the method: as §1

[16] = Postemergence, Rate 62 g/ha, scale 0 to 10, 0 is no effect, 10 is complete control
[17] = Postemergence, Rate 250 g/ha, scale 0 to 10, 0 no effect, 10 complete control
[18] = Preemergence, Rate 62 g/ha, scale 0 to 10 (0 no effect, 10 complete control)
[19] = Preemergence, Rate 125 g/ha, scale 0 to 10 (0 no effect, 10 complete control)
[20] = Preemergence, Rate 250 g/ha, scale of 0 to 10 where 0 is no effect and 10 is complete control
[21] = Preemergence, Rate 500 g/ha, scale 0 (no effect) to 10 (complete control)
[22] = Rate 125 g/ha, Postemergence, scale 0 to 10, 0 no effect, 10 complete control
[23] = Rate 500 g/ha, Postemergence, scale 0 to 10, 0 no effect, 10 complete control

CCN(CC)C(=O)n1oc(=O)n(Cc2cccs2)c1=O [Compound 77]
4: Wheat plant response rating [7, 23] | Cocklebur plant response rating [12, 23]
6: Nutsedge plant response rating [4, 21]
2: B. signalgrass plant response rating ([1]; Rate 500 g/ha, Postemergence, scale of 0 to 10 where 0 is no effect and 10 is complete control) | Plant response rating, Nutsedge [4, 19] | Giant foxtail plant response rating [8, 23] | Plant response rating, Crabgrass [15, 19] | Plant response rating, Crabgrass [15, 20]
1: Soybean plant response rating [11, 17] | Soybean plant response rating [11, 23]
0: B. signalgrass plant response rating [1, 16] | B. signalgrass plant response rating [1, 17] | B. signalgrass plant response rating [1, 18] | Plant response rating, B. signalgrass [1, 19] | Plant response rating, B. signalgrass [1, 20] | B. signalgrass plant response rating [1, 21] | B. signalgrass plant response rating [1, 22] | Sugarbeets plant response rating [2, 16] | Sugarbeets plant response rating [2, 17] | Sugarbeets plant response rating [2, 18] | Plant response rating, Sugarbeets [2, 19] | Plant response rating, Sugarbeets [2, 20] | Sugarbeets plant response rating [2, 21] | Sugarbeets plant response rating [2, 22] | Sugarbeets plant response rating [2, 23] | Velvetleaf plant response rating [3, 16] | Velvetleaf plant response rating [3, 17] | Velvetleaf plant response rating [3, 18] | Plant response rating, Velvetleaf [3, 19] | Plant response rating, Velvetleaf [3, 20] | Velvetleaf plant response rating [3, 22] | Velvetleaf plant response rating [3, 23] | Nutsedge plant response rating [4, 16] | Nutsedge plant response rating [4, 17] | Nutsedge plant response rating [4, 18] | Nutsedge plant response rating [4, 22] | Nutsedge plant response rating [4, 23] | Corn plant response rating [5, 16] | Corn plant response rating [5, 17] | Corn plant response rating [5, 18] | Plant response rating, Corn [5, 19] | Plant response rating, Corn [5, 20] | Corn plant response rating [5, 21] | Corn plant response rating [5, 22] | Corn plant response rating [5, 23] | Redroot pigweed plant response rating [6, 16] | Redroot pigweed plant response rating [6, 17] | Redroot pigweed plant response rating [6, 18] | Plant response rating, Redroot pigweed [6, 19] | Plant response rating, Redroot pigweed [6, 20] | Redroot pigweed plant response rating [6, 21] | Redroot pigweed plant response rating [6, 22] | Redroot pigweed plant response rating [6, 23] | Wheat plant response rating [7, 16] | Wheat plant response rating [7, 17] | Wheat plant response rating [7, 18] | Plant response rating, Wheat [7, 19] | Plant response rating, Wheat [7, 20] | Wheat plant response rating [7, 21] | Wheat plant response rating [7, 22] | Giant foxtail plant response rating [8, 16] | Giant foxtail plant response rating [8, 17] | Giant foxtail plant response rating [8, 18] | Plant response rating, Giant foxtail [8, 19] | Giant foxtail plant response rating [8, 22] | Morningglory plant response rating [9, 16] | Morningglory plant response rating [9, 17] | Morningglory plant response rating [9, 18] | Plant response rating, Morningglory [9, 19] | Plant response rating, Morningglory [9, 20] | Morningglory plant response rating [9, 21] | Morningglory plant response rating [9, 22] | Morningglory plant response rating [9, 23] | Ducksalad plant response rating [10, 16] | Ducksalad plant response rating ([10]; Rate 125 g/ha, Postemergence section (flood test species), scale 0 to 10, 0 no effect, 10 complete control) | Ducksalad plant response rating ([10]; Rate 500 g/ha, listed under Postemergence (flood test species), scale 0 to 10, 0 no effect, 10 complete control) | Ducksalad plant response rating ([10]; flood test, listed under Postemergence, Rate 250 g/ha, scale 0 to 10, 0 no effect, 10 complete control) | Soybean plant response rating [11, 16] | Soybean plant response rating [11, 18] | Plant response rating, Soybean [11, 19] | Plant response rating, Soybean [11, 20] | Soybean plant response rating [11, 21] | Soybean plant response rating [11, 22] | Cocklebur plant response rating [12, 16] | Cocklebur plant response rating [12, 17] | Cocklebur plant response rating [12, 18] | Plant response rating, Cocklebur [12, 19] | Plant response rating, Cocklebur [12, 20] | Cocklebur plant response rating [12, 21] | Cocklebur plant response rating [12, 22] | Rape plant response rating [13, 16] | Rape plant response rating [13, 17] | Rape plant response rating [13, 18] | Plant response rating, Rape [13, 19] | Plant response rating, Rape [13, 20] | Rape plant response rating [13, 21] | Rape plant response rating [13, 22] | Bedstraw plant response rating [14, 16] | Bedstraw plant response rating [14, 17] | Bedstraw plant response rating [14, 18] | Plant response rating, Bedstraw [14, 19] | Plant response rating, Bedstraw [14, 20] | Bedstraw plant response rating [14, 21] | Bedstraw plant response rating [14, 22] | Bedstraw plant response rating [14, 23] | Crabgrass plant response rating [15, 16] | Crabgrass plant response rating [15, 17] | Crabgrass plant response rating [15, 18] | Crabgrass plant response rating [15, 22] | Crabgrass plant response rating [15, 23]
5: Giant foxtail plant response rating [8, 21]
3: Velvetleaf plant response rating [3, 21] | Plant response rating, Nutsedge [4, 20] | Plant response rating, Giant foxtail [8, 20] | Rape plant response rating [13, 23] | Crabgrass plant response rating [15, 21]
